Measurements: patent publication US11839613B2, “Pyrimidine derivatives as PGE2 receptor modulators” (IDORSIA PHARMACEUTICALS LTD, priority 2017, dated 2023)

Columns and labels:
[1] = target: PTGER2 (EP2) (Homo sapiens (Human), UniProt P43116); test: hEP2 b-arrestin assay (PathHunter HEK 293 PTGER2 b-arrestin cells); assay type: cell-based; settings: antagonistic activity, beta-arrestin assay; read-out: hEP2 b-arr IC50
Method: Plate is pre-incubated 15 minutes at 37° C. Then five microliters of PGE2 (final conc. 5 μM) are transferred into the assay plate. Plate is incubated 120 minutes at 37° C.
(each concentration is measured in duplicate)

[2] = target: PTGER4 (EP4) (Homo sapiens (Human), UniProt P35408); test: cell-based
Sequence of PTGER4 (EP4) (P35408 whole entry): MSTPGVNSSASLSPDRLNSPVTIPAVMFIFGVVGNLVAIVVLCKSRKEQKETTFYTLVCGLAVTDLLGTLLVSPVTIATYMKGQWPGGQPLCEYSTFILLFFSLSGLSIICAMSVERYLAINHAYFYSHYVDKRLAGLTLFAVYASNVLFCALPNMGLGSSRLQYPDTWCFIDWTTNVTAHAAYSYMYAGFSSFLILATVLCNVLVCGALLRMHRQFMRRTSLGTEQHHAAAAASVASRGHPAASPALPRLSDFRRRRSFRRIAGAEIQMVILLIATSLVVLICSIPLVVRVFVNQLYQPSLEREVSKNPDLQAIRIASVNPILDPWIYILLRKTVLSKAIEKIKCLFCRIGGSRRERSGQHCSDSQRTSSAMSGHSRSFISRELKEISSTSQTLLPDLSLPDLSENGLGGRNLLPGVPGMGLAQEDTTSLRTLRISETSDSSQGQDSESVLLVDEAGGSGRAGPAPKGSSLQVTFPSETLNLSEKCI

Sequence of PTGER2 (EP2) (P43116 whole entry): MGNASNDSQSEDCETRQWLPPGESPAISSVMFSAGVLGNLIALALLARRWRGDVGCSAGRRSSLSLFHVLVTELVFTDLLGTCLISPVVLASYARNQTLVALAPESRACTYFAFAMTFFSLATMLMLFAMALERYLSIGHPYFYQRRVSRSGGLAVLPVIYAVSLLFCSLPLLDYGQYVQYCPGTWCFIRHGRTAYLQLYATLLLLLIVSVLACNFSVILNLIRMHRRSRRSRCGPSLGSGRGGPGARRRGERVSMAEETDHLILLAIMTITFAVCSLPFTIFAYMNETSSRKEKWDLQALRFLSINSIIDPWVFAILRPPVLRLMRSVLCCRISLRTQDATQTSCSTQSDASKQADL

Row | Structure (SMILES) | IC50 [1] [nM] | IC50 [2] [nM]
1 | CCc1cc(-c2cc(NCCc3c(OC)cc4ccccc4c3C)ncn2)ccc1CC(=O)O [Example 445, (2-Ethyl-4-{6-[2-(3-methoxy-1-methyl-naphthalen-2-yl)-ethylamino]-pyrimidin-4-yl}-phenyl)-acetic acid] | 88 | 38
2 | COc1cc2ccccc2c(C)c1CCNc1cc(-c2ccc(CC(=O)O)c(OC(F)(F)F)c2)ncn1 [Example 500, (4-{6-[2-(3-Methoxy-1-methyl-naphthalen-2-yl)-ethylamino]-pyrimidin-4-yl}-2-trifluoromethoxy-phenyl)-acetic acid] | 88 | 99
3 | CCOc1cc(-c2cc(NCCc3cc(F)c4sccc4c3)ncn2)sc1CCC(=O)O [Example 535, 3-(3-Ethoxy-5-{6-[2-(7-fluoro-benzo[b]thiophen-5-yl)-ethylamino]-pyrimidin-4-yl}-thiophen-2-yl)-propionic acid] | 871 | 42
4 | CCOc1cc(-c2cc(NCCc3cc(F)c4sccc4c3)ncn2)ccc1C(N)=O [Example 461, 2-Ethoxy-4-{6-[2-(7-fluoro-benzo[b]thiophen-5-yl)-ethylamino]-pyrimidin-4-yl}benzamide] | 231 | 121
5 | COc1cc(-c2cc(NCCc3cc(F)c4sccc4c3)ncn2)ccc1CCC(=O)O [Example 560, 3-(4-{6-[2-(7-Fluoro-benzo[b]thiophen-5-yl)-ethylamino]-pyrimidin-4-yl}-2-methoxy-phenyl)-propionic acid] | 476 | 134
6 | CCCOc1cc(-c2cc(NCCc3ccc4sccc4c3F)ncn2)ccc1CC(=O)O [Example 393, (4-{6-[2-(4-Fluoro-benzo[b]thiophen-5-yl)-ethylamino]-pyrimidin-4-yl}-2-propoxy-phenyl)-acetic acid] | 155 | 166
7 | CCOc1cc2c(cc1CCNc1cc(-c3ccc(C(=O)O)c(CC)c3)ncn1)OCCO2 [Example 516, 4-{6-[2-(7-Ethoxy-2,3-dihydro-benzo[1,4]dioxin-6-yl)-ethylamino]-pyrimidin-4-yl}-2-ethyl-benzoic acid] | 23 | 930
8 | COc1cc2c(c(C)c1CCNc1cc(-c3ccc(C(=O)O)c(OC(C)C)c3)ncn1)OCCO2 [Example 432, 2-Isopropoxy-4-{6-[2-(7-methoxy-5-methyl-2,3-dihydro-benzo[1,4]dioxin-6-yl)-ethylamino]-pyrimidin-4-yl}-benzoic acid] | 20 | 87
9 | CCCc1cc(-c2cc(NCCc3ccc4sccc4c3)ncn2)ccc1C(C)C(=O)O (racemic) [Example 481, rac-2-{4-[6-(2-Benzo[b]thiophen-5-yl-ethylamino)-pyrimidin-4-yl]-2-propyl-phenyl}-propionic acid] | 328 | 63
10 | COc1cc2c(cc1CCNc1cc(-c3ccc(CC(=O)O)c(OC(F)F)c3)ncn1)OCCO2 [Example 522, (2-Difluoromethoxy-4-{6-[2-(7-methoxy-2,3-dihydro-benzo[1,4]dioxin-6-yl)-ethylamino]-pyrimidin-4-yl}-phenyl)-acetic acid] | 131 | 204
11 | CCc1cc(-c2cc(NCCc3c(OC)cc4ccccc4c3C)ncn2)ccc1C(=O)O [Example 446, 2-Ethyl-4-{6-[2-(3-methoxy-1-methyl-naphthalen-2-yl)-ethylamino]-pyrimidin-4-yl}-benzoic acid] | 32 | 108
12 | COc1cc(-c2cc(NCCc3c(OC)cc4ccccc4c3C)ncn2)ccc1CC(=O)O [Example 384, (2-Methoxy-4-{6-[2-(3-methoxy-1-methyl-naphthalen-2-yl)-ethylamino]-pyrimidin-4-yl}-phenyl)-acetic acid] | 145 | 28
13 | CCOc1cc(-c2cc(NCCc3cc(C(F)(F)F)c4sccc4c3)ncn2)sc1C(=O)O [Example 488, 3-Ethoxy-5-{6-[2-(7-trifluoromethyl-benzo[b]thiophen-5-yl)-ethylamino]-pyrimidin-4-yl}-thiophene-2-carboxylic acid] | 723 | 45
14 | COc1cc2c(cc1CCNc1cc(-c3ccc(CC(=O)O)c(CC(C)C)c3)ncn1)OCCO2 [Example 411, (2-Isobutyl-4-{6-[2-(7-methoxy-2,3-dihydro-benzo[1,4]dioxin-6-yl)-ethylamino]-pyrimidin-4-yl}-phenyl)-acetic acid] | 97 | 31
15 | COc1cc(-c2cc(NCCc3cc4ccsc4c(F)c3OC)ncn2)ccc1CC(=O)O [Example 485, (4-{6-[2-(7-Fluoro-6-methoxy-benzo[b]thiophen-5-yl)-ethylamino]-pyrimidin-4-yl}-2-methoxy-phenyl)-acetic acid] | 125 | 122
16 | CC(C)Oc1cc(-c2cc(NCCc3cc(F)c4sccc4c3)ncn2)ccc1C(=O)O [Example 491, 4-{6-[2-(7-Fluoro-benzo[b]thiophen-5-yl)-ethylamino]-pyrimidin-4-yl}-2-isopropoxy-benzoic acid] | 372 | 148

Row | Structure (SMILES) | IC50 [1] [nM] | IC50 [2] [nM]
17 | CCOc1cc(-c2cc(NCCc3ccc4sccc4c3F)ncn2)sc1C(=O)O [Example 367, 3-Ethoxy-5-{6-[2-(4-fluoro-benzo[b]thiophen-5-yl)-ethylamino]-pyrimidin-4-yl}-thiophene-2-carboxylic acid] | 7 | 2
18 | CCCOc1cc(-c2cc(NCCc3cc4ccsc4cc3OC)ncn2)ccc1CC(=O)O [Example 392, (4-{6-[2-(6-Methoxy-benzo[b]thiophen-5-yl)-ethylamino]-pyrimidin-4-yl}-2-propoxy-phenyl)-acetic acid] | 66 | 292
19 | O=C(O)c1cccc2cc(-c3cc(NCCc4cc(F)c5sccc5c4)ncn3)[nH]c12 [Example 561, 2-{6-[2-(7-Fluoro-benzo[b]thiophen-5-yl)-ethylamino]-pyrimidin-4-yl}-1H-indole-7-carboxylic acid] | 388 | 103
20 | CSc1cc(-c2cc(NCCc3ccc4ccsc4c3C)ncn2)ccc1C(=O)O [Example 473, 4-{6-[2-(7-Methyl-benzo[b]thiophen-6-yl)-ethylamino]-pyrimidin-4-yl}-2-methylsulfanyl-benzoic acid] | 137 | 275
21 | CCSc1cc(-c2cc(NCCc3cc(F)c4sccc4c3)ncn2)ccc1C(=O)O [Example 533, 2-Ethylsulfanyl-4-{6-[2-(7-fluoro-benzo[b]thiophen-5-yl)-ethylamino]-pyrimidin-4-yl}-benzoic acid] | 211 | 53
22 | O=C(O)c1ccc(-c2cc(NCCc3cc(F)c4sccc4c3)ncn2)cc1O [Example 563, 4-{6-[2-(7-Fluoro-benzo[b]thiophen-5-yl)-ethylamino]-pyrimidin-4-yl}-2-hydroxy-benzoic acid] | 985 | 582
23 | CCOc1cc(-c2cc(NCCc3cc(F)c4scc(Cl)c4c3)ncn2)ccc1CC(=O)O [Example 502, (4-{6-[2-(3-Chloro-7-fluoro-benzo[b]thiophen-5-yl)-ethylamino]-pyrimidin-4-yl}-2-ethoxy-phenyl)-acetic acid] | 103 | 903
24 | CCCn1cc(-c2cc(NCCc3cc(F)c4sccc4c3)ncn2)cc1C(=O)O [Example 548, 4-{6-[2-(7-Fluoro-benzo[b]thiophen-5-yl)-ethylamino]-pyrimidin-4-yl}-1-propyl-1H-pyrrole-2-carboxylic acid] | 933 | 295
25 | Cc1c(CCNc2cc(-c3ccc(C(=O)O)c(OC4CCC4)c3)ncn2)ccc2ccsc12 [Example 471, 2-Cyclobutoxy-4-{6-[2-(7-methyl-benzo[b]thiophen-6-yl)-ethylamino]-pyrimidin-4-yl}-benzoic acid] | 207 | 300
26 | CCOc1cc(-c2cc(NCCc3ccc4scc(Cl)c4c3)ncn2)ccc1C(=O)O [Example 490, 4-{6-[2-(3-Chloro-benzo[b]thiophen-5-yl)-ethylamino]-pyrimidin-4-yl}-2-ethoxy-benzoic acid] | 90 | 144
27 | COc1cc2c(c(C)c1CCNc1cc(-c3ccc(CC(=O)O)c(OC(C)C)c3)ncn1)OCCO2 [Example 426, (2-Isopropoxy-4-{6-[2-(7-methoxy-5-methyl-2,3-dihydro-benzo[1,4]dioxin-6-yl)-ethylamino]-pyrimidin-4-yl}-phenyl)-acetic acid] | 9 | 46
28 | CCOc1cc(-c2cc(NCCc3cc(F)c4sccc4c3)ncn2)ccc1C(=O)O [Example 361, 2-Ethoxy-4-{6-[2-(7-fluoro-benzo[b]thiophen-5-yl)-ethylamino]-pyrimidin-4-yl}-benzoic acid] | 187 | 116
29 | CCCc1cc(-c2cc(NCCc3cc(F)c4sccc4c3)ncn2)ccc1C(N)=O [Example 457, 4-{6-[2-(7-Fluoro-benzo[b]thiophen-5-yl)-ethylamino]-pyrimidin-4-yl}-2-propyl-benzamide] | 200 | 176
30 | COC(=O)c1sc(-c2cc(NCCc3ccc4ccccc4c3C)ncn2)cc1O [Example 468, 3-Hydroxy-5-{6-[2-(1-methyl-naphthalen-2-yl)-ethylamino]-pyrimidin-4-yl}-thiophene-2-carboxylic acid methyl ester] | 564 | 571
31 | COc1cc(-c2cc(NCCc3cc(F)c4sccc4c3)ncn2)ccc1OCCC(=O)O [Example 438, 3-(4-{6-[2-(7-Fluoro-benzo[b]thiophen-5-yl)-ethylamino]-pyrimidin-4-yl}-2-methoxy-phenoxy)-propionic acid] | 519 | 49
32 | CCOc1cc(-c2cc(NCCc3ccc4sccc4c3F)ncn2)cc(F)c1CC(=O)O [Example 375, (2-Ethoxy-6-fluoro-4-{6-[2-(4-fluoro-benzo[b]thiophen-5-yl)-ethylamino]-pyrimidin-4-yl}-phenyl)-acetic acid] | 229 | 46
